For one experiment, the target named is T1, full length human TREX1 (Homo sapiens, UniProt Q9NSU2).
T1 construct: N-terminally His-Tev tagged full length human TREX1; His-Tev (His tag with TEV protease site) (N); made in house; host or cells: E. coli
T1 sequence (Q9NSU2 1-314): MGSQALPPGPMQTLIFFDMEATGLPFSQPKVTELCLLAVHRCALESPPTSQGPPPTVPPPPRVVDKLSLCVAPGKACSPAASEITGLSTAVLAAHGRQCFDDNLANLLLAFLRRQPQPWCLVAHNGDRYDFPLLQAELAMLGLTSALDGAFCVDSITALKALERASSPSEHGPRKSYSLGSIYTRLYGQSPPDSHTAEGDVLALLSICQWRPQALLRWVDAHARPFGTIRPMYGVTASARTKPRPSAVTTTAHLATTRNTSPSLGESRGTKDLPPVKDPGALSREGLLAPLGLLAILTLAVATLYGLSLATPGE
Nature of the experiment: TREX1 Biochemical Assay (fluorescence assay, degradation of dsDNA substrate). The note with it: 150 pM TREX1, 60 nM dsDNA substrate, 25 minutes at room temperature; read-out: hTREX1 EC50. The method, then:
Degradation of the dsDNA liberates free fluorophore to produce a fluorescent signal. Specifically, 7.5 μL of N-terminally His-Tev tagged full length human TREX1 (expressed in E. coli and purified in house) in reaction buffer (50 mM Tris (pH 7.4), 150 mM NaCl, 2 mM DTT, 0.1 mg/mL BSA, 0.01% (v/v) Tween-20 and 100 mM MgCl2) was added to a 384-well Black ProxiPlate Plus (Perkin Elmer) which already contained compound (150 nL) at varying concentrations as a 10-point dose-response in DMSO. To this was added 7.5 μL of dsDNA substrate (Strand A: 5′ TEX615/GCT AGG CAG 3′; Strand B: 5′ CTG CCT AGC/IAbRQSp (Integrated DNA Technologies)) in reaction buffer. Final concentrations were 150 pM TREX1, 60 nM dsDNA substrate in reaction buffer with 1.0% DMSO (v/v). After 25 minutes at room temperature, reactions were quenched by the addition of 5 μL of stop buffer (same as reaction buffer plus 200 mM EDTA). Final concentrations in the quenched reaction were 112.5 pM TREX1, 45 nM DNA and 50 mM EDTA in a volume of 20 μL. After a 5-minute incubation at room temperature, plates were read in a laser sourced Envision (Perkin-Elmer), measuring fluorescence at 615 nm following excitation w/570 nm light. IC50 values were calculated by comparing the measured fluorescence at 615 nm ratio relative to control wells pre-quenched w/stop buffer (100% inhibition) and no inhibitor (0% inhibition) controls as using non-linear least square four parameter fits and either Genedata or GraphPad Prism (GraphPad Software, Inc.).

Experiment [1] deals with T2, human TREX2 (residues M44-A279) (Homo sapiens, UniProt Q9BQ50).
T2 construct: human TREX2 (residues M44-A279, expressed in E. coli); His-Tev (His tag with TEV protease site) (N); made in house; host or cells: E. coli
T2 sequence (Q9BQ50 44-279 isoform Q9BQ50-1): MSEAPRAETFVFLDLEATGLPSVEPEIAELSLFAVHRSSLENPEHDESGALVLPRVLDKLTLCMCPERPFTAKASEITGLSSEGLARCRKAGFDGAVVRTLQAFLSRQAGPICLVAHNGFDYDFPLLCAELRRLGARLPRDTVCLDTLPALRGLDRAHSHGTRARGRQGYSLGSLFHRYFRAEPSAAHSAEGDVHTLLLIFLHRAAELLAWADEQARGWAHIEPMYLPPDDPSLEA
The experiment in a line: TREX2 Biochemical Assay (fluorescence assay, degradation of dsDNA substrate). The note with it: 2.5 nM TREX2, 60 nM dsDNA substrate, 25 minutes at room temperature; read-out: hTREX2 EC50. How it is done:
Degradation of the dsDNA liberates free fluorophore to produce a fluorescent signal. Specifically, 7.5 μL of N-terminally His-Tev tagged human TREX2 (residues M44-A279, expressed in E. coli and purified in house) in reaction buffer (50 mM Tris (pH 7.4), 150 mM NaCl, 2 mM DTT, 0.1 mg/mL BSA, 0.01% (v/v) Tween-20 and 100 mM MgCl2) was added to a 384-well Black ProxiPlate Plus (Perkin Elmer) which already contained compound (150 nL) at varying concentrations as a 10-point dose-response in DMSO. To this was added 7.5 μL of dsDNA substrate (Strand A: 5′ TEX615/GCT AGG CAG 3′; Strand B: 5′ CTG CCT AGC/IAbRQSp (IDT)) in reaction buffer. Final concentrations were 2.5 nM TREX2, 60 nM dsDNA substrate in reaction buffer with 1.0% DMSO (v/v). After 25 minutes at room temperature, reactions were quenched by the addition of 5 μL of stop buffer (same as reaction buffer plus 200 mM EDTA). Final concentrations in the quenched reaction mixture were […] TREX2, 45 nM DNA and 50 mM EDTA in a volume of 20 μL. After a 5-minute incubation at room temperature, plates were read in a laser sourced Envision (Perkin-Elmer), measuring fluorescence at 615 nm following excitation w/570 nm light. IC50 values were calculated by comparing the measured fluorescence at 615 nm ratio relative to control wells pre-quenched w/stop buffer (100% inhibition) and no inhibitor (0% inhibition) controls as using non-linear least square four parameter fits and either Genedata or GraphPad Prism (GraphPad Software, Inc.).

The EC50 is the midpoint of the concentration-response curve.

A value given as a limit tells only on which side of the number the result lay.

Consider `CC[C@@H](c1cccc(OC2COC2)c1Cl)N(Cc1ccc(C(=O)O)nc1)C(=O)c1cc(F)cc(F)c1` [Compound 232], for which the EC50 was below 0.1 µM at full length human TREX1 and 10 to 100 µM in experiment [1].

As for `O=C(O)c1ccc(CN(Cc2cccc(Cl)c2Cl)C(=O)c2cccc(F)c2)cn1` [Compound 147], the EC50 on full length human TREX1 is below 0.1 µM; in experiment [1], 1 to 10 µM.

As for `O=C(O)c1ccc(CN(Cc2ccc(Cl)cc2Cl)C(=O)c2cccc(F)c2)cn1` [Compound 142, 5-({N-[(2,4-dichlorophenyl)methyl]-1-(3-fluorophenyl)formamido}methyl)pyridine-2-carboxylic acid], the EC50 on full length human TREX1 was in the range of 0.1 to 1 µM; in experiment [1], 10 to 100 µM.

As for `COc1cccc(CN(Cc2cccnc2)C(=O)c2cccc(F)c2)c1Cl` [Compound 127], the EC50 is 1 to 10 µM at full length human TREX1 and above 100 µM in experiment [1].

As for `CC(C)(C)c1ccc(C(=O)N(Cc2cccnc2)Cc2cc(Cl)cc(Cl)c2)cc1` [Compound 61], the EC50 at full length human TREX1 was above 10 µM; in experiment [1] it was above 100 µM.

In the case of `CN(C)c1cc(CN(Cc2cccc(Cl)c2Cl)C(=O)c2cc(F)cc(F)c2)cnc1C(=O)O` [Compound 243], the EC50 on full length human TREX1 lay in the range of 1 to 10 µM; in experiment [1] it was 10 to 100 µM.

Consider `O=C(c1cccc(F)c1)N(Cc1ccccc1)Cc1ccc(Cl)cc1Cl` [Compound 96], for which the EC50 at full length human TREX1 was above 10 µM; in experiment [1] it was above 100 µM.

Consider `O=C(CCCCc1ccccc1)N(Cc1cccnc1)Cc1ccc(Cl)cc1Cl` [Compound 93], for which the EC50 is above 10 µM at full length human TREX1 and above 100 µM in experiment [1].

In the case of `CC[C@H](c1cccc(OC)c1C(F)(F)F)N(Cc1ccc(C(=O)O)nc1)C(=O)c1cc(F)cc(F)c1` [Compound 196], the EC50 is below 0.1 µM on full length human TREX1 and below 1 µM in experiment [1].

On to `O=C(O)c1ccc(CN(Cc2cccc(Cl)c2Cl)C(=O)c2cc(F)cc(F)c2)cn1` [Compound 148], for which the values for the EC50 (on full length human TREX1; in experiment [1]) were below 0.1 µM and below 1 µM, respectively.

In the case of `O=C(c1ccc(F)c(Br)c1)N(Cc1cccnc1)Cc1cc(Cl)cc(Cl)c1` [Compound 38], the EC50 at full length human TREX1 was above 10 µM; in experiment [1], above 100 µM.

Consider `O=C(c1ccc(Cl)cc1O)N(Cc1cccnc1)Cc1cc(Cl)cc(Cl)c1` [Compound 45], for which the values for the EC50 (at full length human TREX1; in experiment [1]) were above 10 µM and above 100 µM, respectively.

In the case of `O=C(c1ccc(O)c(F)c1)N(Cc1cccnc1)Cc1cc(Cl)cc(Cl)c1` [Compound 57], the 50% effective concentration (EC50) was above 10 µM at full length human TREX1 and above 100 µM in experiment [1].

Take `CCOc1cccc([C@@H](CC)N(Cc2ccc(C(=O)O)nc2)C(=O)c2cc(F)cc(F)c2)c1Cl` [Compound 228]: the EC50 on full length human TREX1 is below 0.1 µM; in experiment [1], 1 to 10 µM.

With `Cc1ccc(C(=O)N(Cc2cccnc2)Cc2cc(Cl)cc(Cl)c2)c(Br)c1` [Compound 76], the values for the EC50 (on full length human TREX1; in experiment [1]) were above 10 µM and above 100 µM, respectively.

With `O=C(O)c1ccc(CN(Cc2cncc(Cl)c2Cl)C(=O)c2cc(F)cc(F)c2)cn1` [Compound 202], the EC50 on full length human TREX1 was below 0.1 µM; in experiment [1], 1 to 10 µM.

For the molecule `O=C(c1ccc(Cl)c(Cl)c1)N(Cc1cccnc1)Cc1cc(Cl)cc(Cl)c1` [Compound 75], the EC50 at full length human TREX1 was above 10 µM; in experiment [1] it was above 100 µM.

As to `O=C(CN1CCCC1)N(Cc1cccnc1)Cc1ccc(Cl)cc1Cl` [Compound 91], the EC50 on full length human TREX1 was above 10 µM; in experiment [1], above 100 µM.

`O=C(c1cccc(Cl)c1)N(Cc1cccnc1)Cc1ccc(Cl)cc1Cl` [Compound 5]: the EC50 is 1 to 10 µM on full length human TREX1 and above 100 µM in experiment [1].

Consider `Cc1cc(C(=O)N(Cc2cccnc2)Cc2cc(Cl)cc(Cl)c2)ccc1Br` [Compound 78], for which the EC50 on full length human TREX1 is above 10 µM; in experiment [1] it was above 100 µM.

Consider `NCCC[C@@H](c1cccc(Cl)c1Cl)N(Cc1cccnc1)C(=O)c1cc(F)cc(F)c1` [Compound 248], for which the EC50 on full length human TREX1 is below 0.1 µM; in experiment [1] it was 10 to 100 µM.

For the molecule `CC(C)Oc1ccc(C(=O)N(Cc2cccnc2)Cc2ccc(Cl)cc2Cl)cc1` [Compound 90], the figures for the EC50 (on full length human TREX1; in experiment [1]) were above 10 µM and above 100 µM, respectively.

As to `O=C(c1ccc(F)c(F)c1)N(Cc1cccnc1)Cc1ccc(Cl)cc1Cl` [Compound 101], the EC50 on full length human TREX1 was 1 to 10 µM; in experiment [1], above 100 µM.

Turning to `Cc1ncc(C(=O)N(Cc2cccnc2)Cc2ccc(Cl)cc2Cl)cn1` [Compound 104], the EC50 was above 10 µM at full length human TREX1 and above 100 µM in experiment [1].

On to `O=C(c1cccc(F)c1)N(Cc1cccnc1)C1Cc2ccccc2C1` [Compound 134], for which the results for the half-maximal effective concentration (EC50) (on full length human TREX1; in experiment [1]) were above 10 µM and above 100 µM, respectively.

For the molecule `O=C(c1cccc(F)c1)N(CCc1ccccc1)Cc1cccnc1` [Compound 131], the EC50 at full length human TREX1 was above 10 µM; in experiment [1] it was above 100 µM.

For `O=C(c1ccc(CO)cc1)N(Cc1cccnc1)Cc1cc(Cl)cc(Cl)c1` [Compound 64], the EC50 is above 10 µM on full length human TREX1 and above 100 µM in experiment [1].

Regarding `O=C(c1cccc(F)c1)N(Cc1cccnc1)CC1CCCCC1` [Compound 132], the EC50 is above 10 µM on full length human TREX1 and above 100 µM in experiment [1].

As for `NCCC[C@H](c1cccc(Cl)c1Cl)N(Cc1cccnc1)C(=O)c1cc(F)cc(F)c1` [Compound 249], the EC50 on full length human TREX1 lay within 1 to 10 µM; in experiment [1], 10 to 100 µM.

Take `COc1cccc([C@@H](C)N(Cc2ccc(-c3ccn[nH]3)nc2)C(=O)c2cc(F)cc(F)c2)c1Cl` [Compound 225]: the EC50 was 0.1 to 1 µM at full length human TREX1 and 10 to 100 µM in experiment [1].

With `O=C(c1cccc(F)c1)N(CCc1ccc(Cl)cc1Cl)Cc1cccnc1` [Compound 133], the EC50 is above 10 µM at full length human TREX1 and above 100 µM in experiment [1].

For `O=C(c1cnon1)N(Cc1cccnc1)Cc1ccc(Cl)cc1Cl` [Compound 114], the EC50 at full length human TREX1 was above 10 µM; in experiment [1], above 100 µM.

Turning to `O=C(c1ccc(O)c(Cl)c1)N(Cc1cccnc1)Cc1cc(Cl)cc(Cl)c1` [Compound 35], the figures for the EC50 (at full length human TREX1; in experiment [1]) were above 10 µM and above 100 µM, respectively.

As to `C[C@H](c1ccc(C(N)=O)cc1Cl)N(Cc1cccnc1)C(=O)c1cccc(F)c1` (single isomer, unassigned) [Compound 163], the EC50 at full length human TREX1 lay within 0.1 to 1 µM; in experiment [1], 10 to 100 µM.

With `O=C(c1cccc(F)c1)N(Cc1cccnc1)[C@@H](CO)c1ccc(Cl)cc1Cl` (single isomer, unassigned) [Compound 161], the EC50 on full length human TREX1 is above 10 µM; in experiment [1], 10 to 100 µM.

Turning to `O=C(c1cccc(F)c1)N(Cc1cccnc1)Cc1ccc(Cl)cc1Cl` [Compound 11], the EC50 at full length human TREX1 was 1 to 10 µM; in experiment [1] it was 10 to 100 µM.

The record behind these values is US20230233541A1, “SUBSTITUTED BENZAMIDES AS MODULATORS OF TREX1” (Constellation Pharmaceuticals, Inc., priority 2020, published 2023).
